Results from US9156796B2, “Benzoimidazole-carboxylic acid amide derivatives as APJ receptor modulators” (SANOFI, priority 2013, dated 2015).

Target: T1, human apelin receptor (Homo sapiens, UniProt P35414)
T1 construct: expressed in transfected cells
T1 sequence (P35414 1-380): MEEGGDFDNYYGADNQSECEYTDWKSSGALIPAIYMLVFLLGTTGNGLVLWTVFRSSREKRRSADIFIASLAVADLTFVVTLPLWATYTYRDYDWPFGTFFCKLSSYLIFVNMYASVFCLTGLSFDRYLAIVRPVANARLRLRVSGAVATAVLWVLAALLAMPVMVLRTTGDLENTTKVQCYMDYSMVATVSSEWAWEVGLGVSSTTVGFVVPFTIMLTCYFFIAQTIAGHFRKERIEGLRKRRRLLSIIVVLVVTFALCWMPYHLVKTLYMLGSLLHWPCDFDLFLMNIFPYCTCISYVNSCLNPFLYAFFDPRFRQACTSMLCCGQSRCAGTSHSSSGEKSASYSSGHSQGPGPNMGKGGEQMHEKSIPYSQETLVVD
Experiment: Determination of agonism on the human apelin receptor by a calcium fluorescence assay (FLIPR)
Type: cell-based
Settings: HEK293 cells stably transfected with human apelin receptor and Giaq protein, Fluo-4 calcium fluorescence, read-out: EC50 (APJ agonism)
Description: Determination of Agonism on the Human Apelin Receptor by a Calcium Fluorescence Assay (FLIPR)
The assay is based on the detection of intracellular calcium changes detected by the selective, calcium-chelating dye Fluo-4 (Molecular Probes). A large fluorescence intensity increase is observed upon calcium association with Fluo-4. The dye is delivered to the cell interior using an acetoxymethylester form of Fluo-4, where the intracellular esterase activity results in the charged species being released and trapped within the cytoplasm of the cell. […] By co-expressing the human apelin receptor and a promiscuous Giaq protein, agonism of the apelin receptor couples to phospholipase-C resulting in intracellular calcium mobilization.
The HEK293 cells were stably transfected with the human apelin receptor and the Giaq protein. Cells were selected and maintained in a log phase of growth at 37° and 5% CO2 in the Iscove's minimal essential medium, 10% fetal calf serum, 1× Penicillin-Streptomycin, 400 μg/mL G418. One day prior the assay, cells were passaged by accutase and plated at a density of 50,000 cells/well onto a 96-well plates with black border but clear bottom (Costar, cat#3904) in a final volume of 200 μl growth medium.
In order to load the cells the next day with the calcium-sensitive dye, growth medium was carefully replaced by dye solution (100 μl/well) containing Fluo-4 (4 μM) in basic measurement buffer (135 mM NaCl, 5 mM KCl, 1 mM magnesium sulphate, 5 mM glucose, 20 mM Hepes, 2.5 mM probenecid; adjusted to pH 7.4). Cells were incubated for 1 h at 37° C., and then washed 3× with buffer containing no dye. The washer was programmed to leave a remaining volume of 150 μl after the third wash in the plate.
During the dye-loading of the cells, a serial compound dilution was performed in a separate 96-well plate with overall 4× increased concentrations. Small aliquots of DMSO stock solutions of the compounds (10 mM in 100% DMSO were aliquoted into 150 μl buffer in the first rows of the 96-well plates, and then serially diluted by a factor of 1:3 transferring each time 30 μl to the next rows already containing 60 μl buffer. All compounds were tested in a least 7 concentrations, each condition was performed in triplicates. As comparator, we used freshly prepared apelin-13 solutions, for which also a concentration-response curve was determined at each measurement day. The compound plate was incubated for 10 min after the final dilutions steps at 37° C. before transferring the dye-loaded cell plate and the compound plate into a FLIPR Tetra reader (Molecular Devices). Measurement within this reader started by pipetting the agonist solution (50 μl) on the cell plate. Overall perform 60 reads were performed with an interval of 2 sec. The maximum of the fluorescence transient was used to calculate the agonistic response of the cells. In order to normalize this response, which may vary from plate to plate we set the maximum fluorescence achieved by 1 μM apelin-13 on this plate as 100%.
EC-50 values for apelin-13 and the apelin receptor compounds described in this patent were determined by standard algorithms using a specific software package.

SMILES | EC50
CC(C)C[C@H](NC(=O)c1ccc2c(c1)nc(Cc1cccs1)n2C1CCCCC1C)C(=O)O (single isomer, unassigned) [Example 412] | 106 nM
CC(C)C[C@H](NC(=O)c1ccc2c(c1)nc(Cc1cccs1)n2C1CCCCC1C)C(=O)O (single isomer, unassigned) [Example 413] | 1020 nM
CC(C)C[C@H](NC(=O)c1ccc2c(c1)nc(Cc1cccs1)n2C1CCCCC1C)C(=O)O (single isomer, unassigned) [Example 414] | 664 nM
CC(C)C[C@H](NC(=O)c1ccc2c(c1)nc(Cc1cccs1)n2C1CCCCC1C)C(=O)O (single isomer, unassigned) [Example 415] | 532 nM
CC(C)C[C@H](NC(=O)c1ccc2c(c1)nc(Cc1ccco1)n2C1CCCCC1C)C(=O)O (single isomer, unassigned) [Example 416] | 25 nM
CC(C)C[C@H](NC(=O)c1ccc2c(c1)nc(Cc1ccco1)n2C1CCCCC1C)C(=O)O (single isomer, unassigned) [Example 417] | 715 nM
CC(C)C[C@H](NC(=O)c1ccc2c(c1)nc(Cc1ccco1)n2C1CCCCC1C)C(=O)O (single isomer, unassigned) [Example 419] | 313 nM
CCCC[C@H](NC(=O)c1ccc2c(c1)nc(Cc1cccs1)n2C1CCCCC1C)C(=O)O (single isomer, unassigned) [Example 421] | 20000 nM
CCCC[C@H](NC(=O)c1ccc2c(c1)nc(Cc1cccs1)n2C1CCCCC1C)C(=O)O (single isomer, unassigned) [Example 422] | 1860 nM
CC(C)C[C@H](NC(=O)c1ccc2c(c1)nc(Cc1cccs1)n2C1CCCC1C)C(=O)O (single isomer, unassigned) [Example 428] | 266 nM
CC(C)C[C@H](NC(=O)c1ccc2c(c1)nc(Cc1cccs1)n2C1CCCC1C)C(=O)O (single isomer, unassigned) [Example 429] | 891 nM
CC(C)C[C@H](NC(=O)c1ccc2c(c1)nc(Cc1cccs1)n2C1CCCC1C)C(=O)O (single isomer, unassigned) [Example 430] | 1310 nM
CC(C)C[C@H](NC(=O)c1ccc2c(c1)nc(Cc1cccs1)n2C1CCCC1C)C(=O)O (single isomer, unassigned) [Example 431] | 3470 nM
CC(C)C[C@@H](CC(=O)O)NC(=O)c1ccc2c(c1)nc(Cc1ccco1)n2C1CCCCC1C (single isomer, unassigned) [Example 432] | 32 nM
CC(C)C[C@@H](CC(=O)O)NC(=O)c1ccc2c(c1)nc(Cc1ccco1)n2C1CCCCC1C (single isomer, unassigned) [Example 434] | 425 nM
CC(C)C[C@@H](CC(=O)O)NC(=O)c1ccc2c(c1)nc(Cc1cccs1)n2C1CCCCC1C (single isomer, unassigned) [Example 436] | 24 nM
CC(C)C[C@@H](CC(=O)O)NC(=O)c1ccc2c(c1)nc(Cc1cccs1)n2C1CCCCC1C (single isomer, unassigned) [Example 438] | 661 nM
CC(C)C[C@@H](CC(=O)O)NC(=O)c1ccc2c(c1)nc(Cc1cccs1)n2C1CCCCC1C (single isomer, unassigned) [Example 439] | 662 nM
CCC(CC)n1c(Cc2cccs2)nc2cc(C(=O)NC(C)(CC(C)C)C(=O)O)ccc21 (single isomer, unassigned) [Example 440] | 6590 nM
CCC(CC)n1c(Cc2cccs2)nc2cc(C(=O)NC(C)(CC(C)C)C(=O)O)ccc21 (single isomer, unassigned) [Example 441] | 1520 nM
CCC(CC)n1c(Cc2cccs2)nc2cc(C(=O)NC(CC3CCC(C)(C)CC3)C(=O)O)ccc21 (single isomer, unassigned) [Example 445] | 8810 nM
C[C@@H]1CCCC[C@H]1n1c(Cc2cccs2)nc2cc(C(=O)NC(CC3CCCCCC3)C(=O)O)ccc21 (single isomer, unassigned) [Example 451] | 1230 nM
CCCCC(CC(=O)O)NC(=O)c1ccc2c(c1)nc(Cc1cccs1)n2C(CC)CC (single isomer, unassigned) [Example 452] | 49 nM
CCC(CC)n1c(Cc2cccs2)nc2cc(C(=O)NC(CC(=O)O)CC3CCCCC3)ccc21 (single isomer, unassigned) [Example 454] | 126 nM
CCC(CC)n1c(Cc2cccs2)nc2cc(C(=O)NC(CC(=O)O)CC3CCCCC3)ccc21 (single isomer, unassigned) [Example 455] | 160 nM

More lines, in order of falling EC50, values ahead:

EC50 | SMILES
9730 nM | CCCC[C@H](NC(=O)c1ccc2c(c1)nc(Cc1cccs1)n2C1CCCCC1C)C(=O)O (single isomer, unassigned) [Example 423]
4910 nM | CC(C)C[C@@H](CC(=O)O)NC(=O)c1ccc2c(c1)nc(Cc1cccs1)n2C1CCCCC1C (single isomer, unassigned) [Example 437]
3910 nM | CCC(CC)n1c(Cc2cccs2)nc2cc(C(=O)NC(CC3CCC(C)(C)CC3)C(=O)O)ccc21 (single isomer, unassigned) [Example 444]
2680 nM | CC1CCCCC1n1c(Cc2cccs2)nc2cc(C(=O)N[C@@H](CC3CCCCC3)C(=O)O)ccc21 (single isomer, unassigned) [Example 425]
2140 nM | C[C@@H]1CCCC[C@H]1n1c(Cc2cccs2)nc2cc(C(=O)NC(CC3CCC(C)(C)CC3)C(=O)O)ccc21 (single isomer, unassigned) [Example 446]
1720 nM | CC(C)C[C@@H](CC(=O)O)NC(=O)c1ccc2c(c1)nc(Cc1ccco1)n2C1CCCCC1C (single isomer, unassigned) [Example 433]
1630 nM | CC1CCCCC1n1c(Cc2cccs2)nc2cc(C(=O)N[C@@H](CC3CCCCC3)C(=O)O)ccc21 (single isomer, unassigned) [Example 426]
1450 nM | C[C@@H]1CCCC[C@H]1n1c(Cc2cccs2)nc2cc(C(=O)NC(CC3CCCC3)C(=O)O)ccc21 (single isomer, unassigned) [Example 443]
1320 nM | CC1CCCCC1n1c(Cc2cccs2)nc2cc(C(=O)N[C@@H](CC3CCCCC3)C(=O)O)ccc21 (single isomer, unassigned) [Example 427]
853 nM | CCC(CC)n1c(Cc2cccs2)nc2cc(C(=O)NC(CC3CCCCCC3)C(=O)O)ccc21 (single isomer, unassigned) [Example 449]
781 nM | CCCCC(CC(=O)O)NC(=O)c1ccc2c(c1)nc(Cc1cccs1)n2C(CC)CC (single isomer, unassigned) [Example 453]
720 nM | C[C@@H]1CCCC[C@H]1n1c(Cc2cccs2)nc2cc(C(=O)NC(CC3CCCCCC3)C(=O)O)ccc21 (single isomer, unassigned) [Example 450]
706 nM | CCC(CC)n1c(Cc2cccs2)nc2cc(C(=O)NC(CC3CCCCCC3)C(=O)O)ccc21 (single isomer, unassigned) [Example 448]
389 nM | CC1CCCCC1n1c(Cc2cccs2)nc2cc(C(=O)N[C@@H](CC3CCCCC3)C(=O)O)ccc21 (single isomer, unassigned) [Example 424]
248 nM | CC(C)C[C@H](NC(=O)c1ccc2c(c1)nc(Cc1ccco1)n2C1CCCCC1C)C(=O)O (single isomer, unassigned) [Example 418]
226 nM | CC(C)C[C@@H](CC(=O)O)NC(=O)c1ccc2c(c1)nc(Cc1ccco1)n2C1CCCCC1C (single isomer, unassigned) [Example 435]
134 nM | C[C@@H]1CCCC[C@H]1n1c(Cc2cccs2)nc2cc(C(=O)NC(CC3CCCC3)C(=O)O)ccc21 (single isomer, unassigned) [Example 442]
14 nM | CCCC[C@H](NC(=O)c1ccc2c(c1)nc(Cc1cccs1)n2C1CCCCC1C)C(=O)O (single isomer, unassigned) [Example 420]
